Experimental data as given in US20210355104A1, “ADENOSINE RECEPTOR BINDING COMPOUNDS” (Nikang Therapeuticsm Inc., priority 2018, published 2021).
Values joined by “and” are separate entries in the source; they are usually repeats but may differ in a detail not shown here. Identical values can stand only once.

How the values were obtained:
Adenosine A2A receptor [1] = target: T1, Adenosine A2A receptor (Homo sapiens, UniProt P29274); assay: Adenosine A2A receptor competitive binding assay (Tag-lite HTRF); details: Tag-lite adenosine A2A receptor ligand binding
How it was run: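 Compound displacement of a red fluorescent antagonist tracer (added at 60 nM stock) from donor-labelled, pre-transfected human A2A cells was read by HTRF after 2 h at room temperature; compound dilutions contained 0.6% DMSO.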

Adenosine A2A receptor [2] = target: T1, Adenosine A2A receptor; assay: cAMP assay in 293A cells stably expressing the adenosine A2A receptor (CGS21680 stimulation, HTRF); type: cell-based; design: expressed in transfected cells; host or cells: 293A cells (Invitrogen, Cat# R705-07) infected with A2A-expressing lentivirus (custom packaged by Biosettia), puromycin selected; details: 293A-A2AR cells, 0.1% BSA
[3] = 2 h room temperature, values separated by / are repeat determinations
[4] = 8 nM CGS, values separated by / are repeat determinations, read-out: cAMP (nM) 0.1% BSA, 8 nM CGS
[5] = 8 nM CGS, read-out: cAMP (nM) 0.1% BSA, 8 nM CGS
[6] = 1 uM CGS, values separated by / are repeat determinations, read-out: cAMP (nM) 0.1% BSA, 1 uM CGS

T1 sequence (P29274 whole entry): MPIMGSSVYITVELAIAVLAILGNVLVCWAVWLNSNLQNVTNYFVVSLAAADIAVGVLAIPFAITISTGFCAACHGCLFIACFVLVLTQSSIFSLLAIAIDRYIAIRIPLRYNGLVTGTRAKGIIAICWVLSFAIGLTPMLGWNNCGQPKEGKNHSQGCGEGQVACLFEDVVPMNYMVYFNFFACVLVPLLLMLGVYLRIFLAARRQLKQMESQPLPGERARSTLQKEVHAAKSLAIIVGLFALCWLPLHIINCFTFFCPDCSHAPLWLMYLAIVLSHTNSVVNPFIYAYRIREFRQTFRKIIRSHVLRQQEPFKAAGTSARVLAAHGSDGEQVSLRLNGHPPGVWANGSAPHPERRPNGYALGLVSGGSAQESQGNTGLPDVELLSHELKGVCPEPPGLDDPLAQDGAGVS

IC50 (Adenosine A2A receptor [1]; [3])	IC50 (Adenosine A2A receptor [2]; [4])	IC50 (Adenosine A2A receptor [1]; HTRF)	IC50 (Adenosine A2A receptor [2]; [5]) [nM]	IC50 (Adenosine A2A receptor [2]; 1 uM CGS, read-out: cAMP (nM) 0.1% BSA, 1 uM CGS) [nM]	IC50 (Adenosine A2A receptor [2]; [6])	SMILES
		19.1 nM	6.3			Cc1cc(-c2c(OCC3CCC(C)(O)CC3)nc(N)nc2-c2ccc(F)cc2)cc(C(F)F)n1 (centres unmarked) [Example 197, 4-(((2-amino-5-(2-(difluoromethyl)-6-methylpyridin-4-yl)-6-(4-fluorophenyl)pyrimidin-4-yl)oxy)methyl)-1-methylcyclohexan-1-ol]
44 nM	14 nM					Cc1cc(-c2c(OCC(=O)NCC(F)(F)F)nc(N)nc2-c2ccc(F)cc2)cc(C(F)F)n1 [Example 161, 2-((2-amino-5-(2-(difluoromethyl)-6-methylpyridin-4-yl)-6-(4-fluorophenyl)pyrimidin-4-yl)oxy)-N-(2,2,2-trifluoroethyl)acetamide]
		2.5 nM and 3.6 nM	0.9	162		CCn1ccc(COc2nc(N)nc(-c3ccc(F)cc3)c2-c2cc(C)nc(C(F)F)c2)n1 [Example 228, 5-(2-(difluoromethyl)-6-methylpyridin-4-yl)-4-((1-ethyl-1H-pyrazol-3-yl)methoxy)-6-(4-fluorophenyl)pyrimidin-2-amine]
18.1 nM	8.7 nM				1890 nM	Cc1cc(-c2c(OCC3(CO)CCOCC3)nc(N)nc2-c2ccc(F)cc2)cc(C(F)F)n1 [Example 125, (4-(((2-amino-5-(2-(difluoromethyl)-6-methylpyridin-4-yl)-6-(4-fluorophenyl)pyrimidin-4-yl)oxy)methyl)tetrahydro-2H-pyran-4-yl)methanol]
7.7 nM	6.2 nM and 4.2 nM					Cc1cc(-c2c(OCC3COCCO3)nc(N)nc2-c2ccc(F)cc2)cc(C(F)F)n1 (centres unmarked) [Example 114]
33 nM	8.8 nM					Cc1cc(-c2c(OCc3nn(C)cc3C(C)C)nc(N)nc2-c2ccc(F)cc2)cc(C(F)F)n1 [Example 184, 5-(2-(difluoromethyl)-6-methylpyridin-4-yl)-4-(4-fluorophenyl)-6-((4-isopropyl-1-methyl-1H-pyrazol-3-yl)methoxy)pyrimidin-2-amine]
26 nM	9.7 nM					Cc1cc(-c2c(OCc3ncc(S(C)(=O)=O)n3C(C)C)nc(N)nc2-c2ccc(F)cc2)cc(C(F)F)n1 [Example 192, 5-(2-(difluoromethyl)-6-methylpyridin-4-yl)-4-(4-fluorophenyl)-6-((1-isopropyl-5-(methylsulfonyl)-1H-imidazol-2-yl)methoxy)pyrimidin-2-amine]
92 nM	40 nM					CCc1nn[nH]c1COc1nc(N)nc(-c2ccc(F)cc2)c1-c1cc(C)nc(C(F)F)c1 [Example 137, 5-(2-(difluoromethyl)-6-methylpyridin-4-yl)-4-((4-ethyl-1H-1,2,3-triazol-5-yl)methoxy)-6-(4-fluorophenyl)pyrimidin-2-amine]
19 nM	9.9 nM				820 nM	CNS(=O)(=O)NCCOc1nc(N)nc(-c2ccc(F)cc2)c1-c1cc(C)nc(C(F)F)c1 [Example 115]
9.7 nM	7.1 nM					Cc1cc(-c2c(OCCCS(C)(=N)=O)nc(N)nc2-c2ccc(F)cc2)cc(C(F)F)n1 (centres unmarked) [Example 169, (3-((2-amino-5-(2-(difluoromethyl)-6-methylpyridin-4-yl)-6-(4-fluorophenyl)pyrimidin-4-yl)oxy)propyl)(imino)(methyl)-λ^6-sulfanone]
336 nM	184 nM					Cc1cc(-c2c(OCC(=O)NCC3CCOCC3)nc(N)nc2-c2ccc(F)cc2)cc(C(F)F)n1 [Example 160, 2-((2-amino-5-(2-(difluoromethyl)-6-methylpyridin-4-yl)-6-(4-fluorophenyl)pyrimidin-4-yl)oxy)-N-((tetrahydro-2H-pyran-4-yl)methyl)acetamide]
28.7 nM	18 nM					CCN(C(=O)COc1nc(N)nc(-c2ccc(F)cc2)c1-c1cc(C)nc(C(F)F)c1)C1COC1 [Example 118, 2-((2-amino-5-(2-(difluoromethyl)-6-methylpyridin-4-yl)-6-(4-fluorophenyl)pyrimidin-4-yl)oxy)-N-ethyl-N-(oxetan-3-yl)acetamide]
8.9 nM	16 nM and 7.5 nM					CNC(=O)NCCOc1nc(N)nc(-c2ccc(F)cc2)c1-c1cc(C)nc(C(F)F)c1 [Example 113, 1-(2-((2-amino-5-(2-(difluoromethyl)-6-methylpyridin-4-yl)-6-(4-fluorophenyl)pyrimidin-4-yl)oxy)ethyl)-3-methylurea]
3.6 nM	4.1 nM					Cc1cc(-c2c(OCc3nccn3C3COC3)nc(N)nc2-c2ccc(F)cc2)cc(C(F)F)n1 [Example 171, 5-(2-(difluoromethyl)-6-methylpyridin-4-yl)-4-(4-fluorophenyl)-6-((1-(oxetan-3-yl)-1H-imidazol-2-yl)methoxy)pyrimidin-2-amine]

Second part, the molecule before the results:

SMILES	IC50 (Adenosine A2A receptor [1]; [3])	IC50 (Adenosine A2A receptor [2]; [4])	IC50 (Adenosine A2A receptor [1]; HTRF)	IC50 (Adenosine A2A receptor [2]; [5]) [nM]	IC50 (Adenosine A2A receptor [2]; 1 uM CGS, read-out: cAMP (nM) 0.1% BSA, 1 uM CGS) [nM]	IC50 (Adenosine A2A receptor [2]; [6])
COC(=O)NCc1nc(N)nc(-c2ccc(F)cc2)c1-c1cc(C)nc(C(F)F)c1 [Example 103, methyl((2-amino-5-(2-(difluoromethyl)-6-methylpyridin-4-yl)-6-(4-fluorophenyl)pyrimidin-4-yl)methyl)carbamate]	47 nM	11 nM				
CCN(CC)C(=O)COc1nc(N)nc(-c2ccc(C)o2)c1-c1cc(C)nc(C(F)(F)F)c1 [Example 12, 2-((2-amino-5-(2-methyl-6-(trifluoromethyl)pyridin-4-yl)-6-(5-methylfuran-2-yl)pyrimidin-4-yl)oxy)-N,N-diethylacetamide]	13.8 nM	2 nM				
Cc1cc(-c2c(OCCCN3CCOCC3)nc(N)nc2-c2ccc(F)cc2)cc(C(F)F)n1 [Example 80, 5-(2-(difluoromethyl)-6-methylpyridin-4-yl)-4-(4-fluorophenyl)-6-(3-morpholinopropoxy)pyrimidin-2-amine]	42 nM	6.4 nM				
Cc1cc(-c2c(OCC(=O)N(CCO)CCO)nc(N)nc2-c2ccc(F)cc2)cc(C(F)F)n1 [Example 88]	22 nM	8.3 nM				4260 nM
Cc1cc(-c2c(OCCN3CCN(C4COC4)CC3)nc(N)nc2-c2ccc(F)cc2)cc(C(F)F)n1 [Example 52, 5-(2-(difluoromethyl)-6-methylpyridin-4-yl)-4-(4-fluorophenyl)-6-(2-(4-(oxetan-3-yl)piperazin-1-yl)ethoxy)pyrimidin-2-amine]	120 nM	532 nM				
Cc1cc(-c2c(O[C@H](C)CO)nc(N)nc2-c2ccc(F)cc2)cc(C(F)F)n1 [Example 73, (R)-2-((2-amino-5-(2-(difluoromethyl)-6-methylpyridin-4-yl)-6-(4-fluorophenyl)pyrimidin-4-yl)oxy)propan-1-ol]	25 nM	3.6 nM				
Cc1cc(-c2c(OCC(O)CCO)nc(N)nc2-c2ccc(F)cc2)cc(C(F)F)n1 (centres unmarked) [Example 81, 4-((2-amino-5-(2-(difluoromethyl)-6-methylpyridin-4-yl)-6-(4-fluorophenyl)pyrimidin-4-yl)oxy)butane-1,3-diol]	5.6 nM	21 nM and 5.9 nM and 8.4 nM				
Cc1cc(-c2c(OCC(=O)O)nc(N)nc2-c2ccc(F)cc2)cc(C(F)F)n1 [Example 71, 2-((2-amino-5-(2-(difluoromethyl)-6-methylpyridin-4-yl)-6-(4-fluorophenyl)pyrimidin-4-yl)oxy)acetic acid]	> 1000 nM	> 1000 nM				
CCN(CC)C(=O)COc1nc(N)nc(-c2ccc(F)cc2)c1-c1cc(C)nc(C(F)F)c1 [Example 28, 2-([2-amino-5-[2-(difluoromethyl)-6-methylpyridin-4-yl]-6-(4-fluorophenyl)pyrimidin-4-yl]oxy)-N,N-diethylacetamide]	7.56 nM	0.44 nM and 1.3 nM				
COC(=O)N1CCN(CCOc2nc(N)nc(-c3ccc(F)cc3)c2-c2cc(C)nc(C(F)F)c2)CC1 [Example 51, methyl 4-(2-((2-amino-5-(2-(difluoromethyl)-6-methylpyridin-4-yl)-6-(4-fluorophenyl)pyrimidin-4-yl)oxy)ethyl)piperazine-1-carboxylate]	10 nM	3.9 nM				
Cc1cc(-c2c(OCCc3ccc(N4CCN(C)CC4)cc3)nc(N)nc2-c2ccc(F)cc2)cc(C(F)F)n1 [Example 57, 5-(2-(difluoromethyl)-6-methylpyridin-4-yl)-4-(4-fluorophenyl)-6-(4-(4-methylpiperazin-1-yl)phenethoxy)pyrimidin-2-amine]	2 nM and 14 nM	1.7 nM				
Cc1cc(-c2c(OCCNS(N)(=O)=O)nc(N)nc2-c2ccc(F)cc2)cc(C(F)F)n1 [Example 59]	1.8 nM and 7.8 nM	2.2 nM and 1.3 nM				663 nM and 394 nM
Cc1cc(-c2c(OCCNc3ccccc3)nc(N)nc2-c2ccc(F)cc2)cc(C(F)F)n1 [Example 82, 5-(2-(difluoromethyl)-6-methylpyridin-4-yl)-4-(4-fluorophenyl)-6-(2-(phenylamino)ethoxy)pyrimidin-2-amine]	16 nM	1.6 nM				936 nM
Cc1cc(-c2c(O[C@@H](C)CO)nc(N)nc2-c2ccc(F)cc2)cc(C(F)F)n1 [Example 76, (S)-2-((2-amino-5-(2-(difluoromethyl)-6-methylpyridin-4-yl)-6-(4-fluorophenyl)pyrimidin-4-yl)oxy)propan-1-ol]	19 nM	3.2 nM				
